{
  "source": "patent US20240368221A1",
  "about": "“IMPATIENS BALSAMINA-DERIVED ANTI-BACTERIAL PEPTIDE AND ANTI-BACTERIAL COMPOSITION CONTAINING SAME” (V&CO CO., LTD., priority 2021, published 2024)",
  "key": {"[1]": {"assay": "Cytotoxicity, WST-1 cell viability", "format": "cell-based, murine", "conditions": "mouse, L929 cells (murine fibroblast cell line)", "method": "(§1) Specifically, cytotoxicity was evaluated using a skin cell line, L929 cells (murine fibroblast cell line). In addition, as comparative groups, Ib-AMP4 and the bee venom-derived AMP, melittin, known to be highly cytotoxic, were used. The L929 cells were cultured in RPMI 1640 medium (Gibco), which was supplemented with 10% FBS (Sigma), antibiotic-antimycotic cocktail, penicillin G (100 IU/mL), streptomycin (100 μg/mL), and amphotericin B (250 ng/ml; Gibco), at 37° C. in 5% CO2. The cells were seeded in a 96-well plate at 1×10^4 cell/well, incubated for 18 hours, treated with each peptide at 1.25 to 160 µg/mL, and then incubated for 24 hours. 10 μL of WST-1 reagent was added to 100 μL of the medium and allowed to react at 37° C. for 30 minutes, and then absorbance (A450) was measured at 450 nm using a microplate reader. Instead of the peptides, 0.1% Triton X-100 and PBS were used as positive and negative controls, respectively, and cell viability was calculated based on the following equation: % Cell viability=[(A450 in peptide solution−A450 in PBS)/(A450 in 0.1% Triton X−100-A450 in PBS)]×100. The analysis results were expressed as mean±S.D of three repeated experiments."}, "[2]": {"test_system": "L929 cells (murine fibroblast cell line)", "assay": "Cytotoxicity, WST-1 cell viability", "format": "cell-based", "method": "as §1"}, "[3]": {"test_system": "sheep red blood cells (sRBCs)", "assay": "Hemolytic activity", "format": "cell-based", "conditions": "for Hemolytic Activity (%): red cells of sheep", "method": "Specifically, hemolytic activity was analyzed using sheep red blood cells (sRBCs). In addition, as comparative groups, Ib-AMP4 and melittin were used. Defibrinated sheep blood (MB cells) was centrifuged (4,000×g, 10 min, 4° C.), washed with PBS three times, and suspended in PBS, thereby preparing an sRBC solution (10% sRBC). 5% sRBC and each peptide were mixed to have a final concentration of 1.25 to 160 μg/mL, allowed to react at room temperature for 30 minutes, and centrifuged to collect a supernatant. The absorbance (A414) of hemoglobin eluted from the red blood cells in the collected supernatant was measured at 414 nm. 0.1% Triton X−100 was used as a positive control, PBS was used as a negative control, and hemolytic activity (% Hemolysis) was calculated based on the following equation: % Hemolysis=[(A414 in peptide solution−A414 in PBS)/(A414 in 0.1% Triton X−100−A414 in PBS)]×100."}, "[4]": {"test_system": "Staphylococcus aureus KCTC 1621", "format": "cell-based", "method": "(§2) To examine the antimicrobial and antifungal activity of the six types of peptide derivatives prepared in Example 1, antimicrobial and antifungal activity was analyzed using three types of bacterial strains and two types of fungal strains.\n(§3) Specifically, to analyze antimicrobial and antifungal activity, a minimal inhibitory concentration (MIC) was measured. The three types of bacterial strains included Escherichia coli KCCM 41290, Staphylococcus aureus KCTC 1621, and Cutibacterium acnes KCTC 3314, and the two types of fungal strains included Candida albicans KCTC 17712, and Aspergillus niger KCTC 6317. The culture of Escherichia coli and Staphylococcus aureus was performed in Luria-Bertani (LB) medium (BD Difco), and the culture of Cutibacterium acnes was performed in reinforced clostridial medium (RCM, BD Difco). The culture of Candida albicans and Aspergillus niger was performed in potato dextrose (PD) medium (BD Difco). The pre-cultured microorganisms or spores were diluted in a medium to 5×10^3 CFU/mL, and each of the six types of peptide derivatives prepared in Example 1 was added at a predetermined concentration. Afterward, a bacterial strain was cultured at 37° C., a fungal strain was cultured at 25° C. for 18 to 24 hours, and optical densities (OD600) were measured using a microplate reader. Fluorescence values (Ex560 and Em600), instead of optical densities, were measured after adding a resazurin reagent to the Aspergillus niger medium to have a concentration of 100 μM. As a control, Ib-AMP4 was used, and the analysis results were expressed as the average of three repeated experiments."}, "[5]": {"test_system": "Escherichia coli KCCM 41290", "format": "cell-based", "method": "as §2, §3"}, "[6]": {"test_system": "Cutibacterium acnes KCTC 3314", "format": "cell-based", "conditions": "KCTC 3314", "method": "as §2, §3"}, "[7]": {"test_system": "Aspergillus niger KCTC 6317", "format": "cell-based", "method": "as §2, §3"}, "[8]": {"test_system": "Candida albicans KCTC 17712", "format": "cell-based", "method": "as §2, §3"}},
  "note": "Like-named read-outs stand apart in the source and are kept apart here. Where a SMILES comes first, the peptide text is derived from it.",
  "data": [
    {"smiles": "N=C(N)NCCC[C@H](NC(=O)CNC(=O)[C@H](Cc1c[nH]c2ccccc12)NC(=O)[C@@H](N)CCC(=O)O)C(=O)N[C@@H](CCCNC(=N)N)C(=O)N[C@@H](CS)C(=O)N[C@@H](CS)C(=O)NCC(=O)N[C@@H](Cc1c[nH]c2ccccc12)C(=O)NCC(=O)N1CCC[C@H]1C(=O)NCC(=O)N[C@@H](CCCNC(=N)N)C(=O)N[C@@H](CCCNC(=N)N)C(=O)N[C@@H](Cc1ccc(O)cc1)C(=O)N[C@@H](CS)C(=O)N[C@@H](CCCNC(=N)N)C(=O)N[C@@H](CCCNC(=N)N)C(=O)N[C@@H](Cc1c[nH]c2ccccc12)C(=O)N[C@@H](CS)C(N)=O", "note": "[Ib-AMP4] (H-EWGRRCCGWGPGRRYCRRWC-NH2; N-terminus assumed)", "values": [
      {"measurement": "viability at 24 h, 1.25 µg/mL", "setting": "[1]; L929 cells, peptide 1.25 μg/mL, 24 hours, read-out: Relative cell viability (%)", "value": 95, "unit": "%"},
      {"measurement": "viability at 24 h, 2.5 µg/mL", "setting": "[1]; L929 cells, peptide 2.5 μg/mL, 24 hours, read-out: Relative cell viability (%)", "value": 94.4, "unit": "%"},
      {"measurement": "viability at 24 h, 5 µg/mL", "setting": "[1]; L929 cells, peptide 5.0 μg/mL, 24 hours, read-out: Relative cell viability (%)", "value": 95.1, "unit": "%"},
      {"measurement": "viability at 24 h, 10 µg/mL", "setting": "[1]; L929 cells, peptide 10 μg/mL, 24 hours, read-out: Relative cell viability (%)", "value": 95.7, "unit": "%"},
      {"measurement": "viability at 24 h, 20 µg/mL", "setting": "[1]; L929 cells, peptide 20 μg/mL, 24 hours, read-out: Relative cell viability (%)", "value": 97.3, "unit": "%"},
      {"measurement": "viability at 24 h, 40 µg/mL", "setting": "[1]; L929 cells, peptide 40 μg/mL, 24 hours, read-out: Relative cell viability (%)", "value": 90.4, "unit": "%"},
      {"measurement": "viability at 24 h, 80 µg/mL", "setting": "[1]; L929 cells, peptide 80 μg/mL, 24 hours, read-out: Relative cell viability (%)", "value": 92.2, "unit": "%"},
      {"measurement": "viability at 24 h, 160 µg/mL", "setting": "[1]; L929 cells, peptide 160 μg/mL, 24 hours, read-out: Relative cell viability (%)", "value": 89.2, "unit": "%"},
      {"measurement": "viability at 24 h, 160 g/mL", "setting": "[1]; L929 cells, peptide 160 g/mL as printed, read-out: cell viability", "value": "≥ 90", "unit": "%"},
      {"measurement": "cytotoxic activity (in words)", "setting": "[2]; L929 cells", "value": "insignificant cytotoxic and hemolytic activity"},
      {"measurement": "Hemolytic Activity (%)", "setting": "[3]; 1.25 μg/mL", "value": 4.09, "unit": "%"},
      {"measurement": "Hemolytic Activity (%)", "setting": "[3]; 2.5 μg/mL", "value": 4.47, "unit": "%"},
      {"measurement": "Hemolytic Activity (%)", "setting": "[3]; 5 μg/mL", "value": 7.42, "unit": "%"},
      {"measurement": "Hemolytic Activity (%)", "setting": "[3]; 10 μg/mL", "value": 8.42, "unit": "%"},
      {"measurement": "Hemolytic Activity (%)", "setting": "[3]; 20 μg/mL", "value": 10.15, "unit": "%"},
      {"measurement": "Hemolytic Activity (%)", "setting": "[3]; 40 μg/mL", "value": 15.79, "unit": "%"},
      {"measurement": "Hemolytic Activity (%)", "setting": "[3]; 80 μg/mL", "value": 16.61, "unit": "%"},
      {"measurement": "hemolytic activity (in words)", "setting": "[3]; sheep red blood cells", "value": "insignificant cytotoxic and hemolytic activity"},
      {"measurement": "antimicrobial activity (in words)", "setting": "[4]; Staphylococcus aureus", "value": "insignificant antimicrobial activity"},
      {"measurement": "MIC", "setting": "[4]; Staphylococcus aureus, LB medium, 37° C., 18 to 24 hours, OD600", "value": "> 100", "unit": "µg/mL"},
      {"measurement": "antimicrobial activity (in words)", "setting": "[5]; Escherichia coli", "value": "insignificant antimicrobial activity"},
      {"measurement": "MIC", "setting": "[5]; Escherichia coli, LB medium, 37° C., 18 to 24 hours, OD600", "value": "> 100", "unit": "µg/mL"},
      {"measurement": "MIC", "setting": "[6]", "value": ">100", "unit": "µg/mL"},
      {"measurement": "MIC", "setting": "[7]; Aspergillus niger, PD medium, 25° C., 18 to 24 hours, resazurin fluorescence", "value": 80, "unit": "µg/mL"},
      {"measurement": "MIC", "setting": "[8]; Candida albicans, PD medium, 25° C., 18 to 24 hours, OD600", "value": 60, "unit": "µg/mL"}
    ]},
    {"smiles": "N=C(N)NCCC[C@H](NC(=O)[C@H](CCCNC(=N)N)NC(=O)[C@H](Cc1c[nH]c2ccccc12)NC(=O)[C@H](Cc1ccc(O)cc1)NC(=O)[C@H](CCCNC(=N)N)NC(=O)[C@H](CCCNC(=N)N)NC(=O)[C@H](Cc1c[nH]c2ccccc12)NC(=O)[C@@H]1CCCN1C(=O)CN)C(N)=O", "note": "[VESCA3] (H-GPWRRYWRR-NH2)", "values": [
      {"measurement": "viability at 24 h, 1.25 µg/mL", "setting": "[1]", "value": 96.7, "unit": "%"},
      {"measurement": "viability at 24 h, 2.5 µg/mL", "setting": "[1]", "value": 104, "unit": "%"},
      {"measurement": "viability at 24 h, 5 µg/mL", "setting": "[1]", "value": 104, "unit": "%"},
      {"measurement": "viability at 24 h, 10 µg/mL", "setting": "[1]", "value": 97.1, "unit": "%"},
      {"measurement": "viability at 24 h, 20 µg/mL", "setting": "[1]", "value": 99.7, "unit": "%"},
      {"measurement": "viability at 24 h, 40 µg/mL", "setting": "[1]", "value": 91.9, "unit": "%"},
      {"measurement": "viability at 24 h, 80 µg/mL", "setting": "[1]", "value": 91.6, "unit": "%"},
      {"measurement": "viability at 24 h, 160 µg/mL", "setting": "[1]", "value": 94.9, "unit": "%"},
      {"measurement": "viability at 24 h, 160 g/mL", "setting": "[1]", "value": "≥ 90", "unit": "%"},
      {"measurement": "cytotoxic activity (in words)", "setting": "[2]", "value": "insignificant cytotoxic and hemolytic activity"},
      {"measurement": "hemolytic activity (in words)", "setting": "[3]", "value": "insignificant cytotoxic and hemolytic activity"},
      {"measurement": "MIC", "setting": "[4]; KCTC 1621", "value": 5, "unit": "µg/mL"},
      {"measurement": "MIC", "setting": "[5]; KCCM 41290", "value": 60, "unit": "µg/mL"},
      {"measurement": "MIC", "setting": "[6]", "value": ">100", "unit": "µg/mL"},
      {"measurement": "MIC", "setting": "[7]; KCTC 6317", "value": 40, "unit": "µg/mL"},
      {"measurement": "MIC", "setting": "[8]; KCTC 17712", "value": 20, "unit": "µg/mL"}
    ]}
  ]
}
